According to BindingDB's records for PubMed 33077264 (Menoufia University, 2021):

Target: Lysine-specific histone demethylase 1A (Homo sapiens, UniProt O60341)
Assay: Inhibition of N-terminal GST tagged LSD1 (residues 171 - 852) (unknown origin) overexpressed in Escherichia coli using ARTK(Me)2QTARKSTGGKAPRKQLAas substrate incubated for 20 mins by spectrophotometric analysis

IC50: 0.33 µM
Structure (SMILES): Nc1ccccc1NC(=O)c1ccc(CCCC(=O)Nc2ccc(C3CC3N)cc2)cc1 (stereo unspecified)
